Test results reported in patent US12576081B2 (MEZZION PHARMA CO., LTD., priority 2019, dated 2026).
Where “and” joins values, the source holds several entries; their conditions need not be identical. Equal values may be shown once.

Legend:
[1] = system: adolescents with SVHD who had undergone Fontan palliation; test: FUEL trial, resting data; type: in vivo, human
Protocol: (§1) The FUEL Trial was conducted at 30 centers around the world. […] (Funded by Mezzion Pharma Co. Ltd., and conducted by the National Heart, Lung, and Blood Institute-funded Pediatric Heart Network; ClinicalTrials.gov number NCT02741115).
(§2) The primary outcome was the change in oxygen consumption at peak exercise (max or peak VO2) from baseline to the 26-week visit. Secondary exercise outcomes included change in additional measures at maximal exertion, as well as change in measures of submaximal exercise at the ventilatory anaerobic threshold (VAT). The primary outcome for clinical secondary aims included change in myocardial performance index (MPI), an echocardiographically-derived measure of systolic and diastolic ventricular function, change in log-transformed reactive hyperemia index (lnRHI), a PAT-derived measure of peripheral vascular function, and change in log-transformed serum BNP level. Safety was monitored through adverse event reports, which were collected according to a pre-specified protocol of study coordinator outreach, and through ad hoc patient and family communication with members of the study team at each site.
Individuals between the ages of 12 and 18 years (inclusive) who had undergone the Fontan procedure, who were not receiving treatment with a PDE5 inhibitor, who were ≥40 kg, and who met the minimum height requirement for cycle ergometry (≥132 cm) were eligible for enrollment.
Randomization assignments were generated by a web-based algorithm after confirmation of trial eligibility and consent.
(§3) Baseline clinical testing completed before drug initiation included a blood draw to measure brain-type natriuretic peptide (BNP) level, a cardiopulmonary exercise test (CPET) using a standardized cycle ergometer ramp protocol, a standardized echocardiogram, and an assessment of peripheral vascular function using peripheral arterial tonometry (PAT) measured by finger cuff (EndoPAT; Itamar Medical, Israel). Participants who achieved maximal effort, defined as respiratory exchange ratio (RER)≥1.10 at peak exercise during CPET, were eligible for randomization and study drug initiation. […] End-of-study clinical testing included repeat measurement of serum BNP, CPET, echocardiogram, and PAT.
A sample size of 200 participants per arm was chosen to allow for 90% power to detect a mean treatment difference in change from baseline to 26-week testing in max VO2 of 10% with a type 1 error of 0.05. The following assumption were made: a baseline standard deviation of 7.235 ml/kg/min, a correlation between max VO2 measurements of 0.33, a drop-out and incomplete testing rate of 10%, and failure to reach maximal effort at the 26-week exercise testing in 15% of participants. These assumptions were based on historical data and reflect a conservative approach to assessing within-participant correlations and failure to reach maximal effort. The primary analysis used the intention-to-treat population to evaluate the difference in the change in the primary outcome between treatment arms. This difference was assessed with an analysis of covariance (ANCOVA) with fixed factors for ventricular morphology (single left versus single right or mixed) and treatment group, with a continuous covariate of baseline max VO2. For those without data at the 26-week visit, this value was imputed as equal to the baseline value (no change). […] Secondary outcomes of continuous data points were analyzed in the manner described for the primary outcome. […]

[2] = system: adolescents with SVHD who had undergone Fontan palliation; test: FUEL trial, cardiopulmonary exercise test (cycle ergometer ramp protocol), peak exercise and ventilatory anaerobic threshold; type: in vivo, human
Protocol: as §1, §2, §3
A sample size of 200 participants per arm was chosen to allow for 90% power to detect a mean treatment difference in change from baseline to 26-week testing in max VO2 of 10% with a type 1 error of 0.05. The following assumption were made: a baseline standard deviation of 7.235 ml/kg/min, a correlation between max VO2 measurements of 0.33, a drop-out and incomplete testing rate of 10%, and failure to reach maximal effort at the 26-week exercise testing in 15% of participants. These assumptions were based on historical data and reflect a conservative approach to assessing within-participant correlations and failure to reach maximal effort. The primary analysis used the intention-to-treat population to evaluate the difference in the change in the primary outcome between treatment arms. This difference was assessed with an analysis of covariance (ANCOVA) with fixed factors for ventricular morphology (single left versus single right or mixed) and treatment group, with a continuous covariate of baseline max VO2. For those without data at the 26-week visit, this value was imputed as equal to the baseline value (no change). Secondary analyses included participants who successfully completed the protocol with measurable values at each of the secondary endpoints. Secondary outcomes of continuous data points were analyzed in the manner described for the primary outcome. In order to assess the generalizability of findings at the ventilatory anaerobic threshold, demographic and clinical characteristics were compared between participants without paired VO2 at VAT data and those comprising the remainder of the cohort.
The FUEL Trial was a Phase III clinical trial conducted at 30 centers. […] The primary outcome was the between group difference in change in oxygen consumption at peak exercise. Secondary outcomes included between group differences in changes in sub-maximal exercise at the ventilatory anaerobic threshold (VAT), the myocardial performance index (MPI), the natural log of the reactive hyperemia index (lnRHI), and serum brain-type natriuretic peptide (BNP). […]

[3] = system: adolescents with Fontan physiology; conditions: cited from earlier work
[4] = system: adolescents with SVHD who had undergone Fontan palliation; test: FUEL trial, echocardiographic myocardial performance index (blood pool Doppler); type: in vivo, human; conditions: for MPI difference, Week 26 − Baseline, mean (SD): paired data, decrease shows improvement, p 0.028 vs placebo
Source text: Generally speaking, MPI (also referred to as the Doppler-derived index or Tei Index) is a measure of ventricular systolic and diastolic function as determined by a focused echocardiogram. It combines systolic and diastolic time intervals to assess heart function. More specifically, MPI can be used to assess ventricular performance represented by a numeric value using cardiac time intervals. This numeric value equals the sum of isovolumetric contraction time (ICT) and isovolumetric relaxation time (IRT) divided by ejection time (ET) and can be determined for either the left or right ventricle. Pellett, A. A., et al.: The Tei Index: Methodology and Disease. State Values. Echocardiography. A Jrnl. of CV Ultrasound & Allied Tech. 21(7):669-672 (2004); and Ulugay, A., Tatli E.: Myocardial performance index. Anadolu Kardiyol Derg 8(2):143-8 (April, 2008), both of which are incorporated herein by reference in their entireties. In the FUEL Trial, the MPI measured the performance of the single functioning ventricle. Thus, the MPI results from the FUEL Trial were determined by velocities obtained from blood pool Doppler assessment of the inflow and outflow tract of the functioning single ventricle. In other words, the FUEL Trial MPI was determined by measuring the cardiac time intervals using pulsed-wave Doppler velocity spectra of the ventricular inflow and outflow of the single functioning ventricle.
Echocardiograms were performed by sonographers with specific training for this protocol. The primary outcome of interest was MPI using Doppler-based measures of inflow and outflow duration. The duration of inflow into the dominant ventricle and outflow across the dominant semilunar valve were measured and used to calculate MPI using the standard formula. Tei C, Ling L H, Hodge D O, et al.: New index of combined systolic and diastolic myocardial performance: a simple and reproducible measure of cardiac—a study in normals and dilated cardiomyopathy. J Cardiol, 26(6):357-66 (1995); and Pellet A A et al.: The Tei Index Methodology and Disease State Values. Echocardiography: A Jrnl Of CV Ultrasound & Allied Tech, 21(7):669-672 (2004) Additional tissue Doppler images were obtained and used to calculate the tissue Doppler based MPI as previously described. Harada K, Tamura M, Toyono M et al.: Comparison of the right ventricular Tei index by tissue Doppler imaging to that obtained by pulsed Doppler in children without heart disease. Am J Cardiol, 90(5):566-9 (2002). Whenever possible, three measurements were made and the mean duration was used for the calculation.
as §2
Baseline clinical testing completed before drug initiation included a blood draw to measure brain-type natriuretic peptide (BNP) level, a cardiopulmonary exercise test (CPET) using a standardized cycle ergometer ramp protocol, a standardized echocardiogram, and an assessment of peripheral vascular function using peripheral arterial tonometry (PAT) measured by finger cuff (EndoPAT; Itamar Medical, Israel). […]

[5] = system: adolescents with SVHD who had undergone Fontan palliation; test: FUEL trial, safety and tolerability (adverse event reports); type: in vivo, human
Source text: as §2
The primary outcome for clinical secondary aims included the between group differences in change in myocardial performance index (MPI), an echocardiographically-derived measure of systolic and diastolic ventricular function, change in log-transformed reactive hyperemia index (lnRHI), a PAT-derived measure of peripheral vascular function, and change in log-transformed serum BNP level. Measurements for each of these secondary outcomes were performed at core labs. Safety was monitored through adverse event reports, which were collected according to a pre-specified protocol of study coordinator outreach, and through adhoc patient and family communication with members of the study team at each site.
A sample size of 200 participants per arm was chosen to allow for 90% power to detect a mean treatment difference in change from baseline to 26-week testing in peak VO2 of 10% with a type 1 error of 0.05. We assumed a baseline standard deviation of 7.235 ml/kg/min, a correlation between peak VO2 measurements of 0.33, a drop-out and incomplete testing rate of 10%, and failure to reach maximal effort at the 26-week exercise testing in 15% of participants. These assumptions were based on historical data and reflect a conservative approach to assessing within-participant correlations and failure to reach maximal effort and the analysis was performed using a two-sample, independent means t-test. The primary analysis used the intention-to-treat population to evaluate the difference in the change in the primary outcome between treatment arms. This difference was assessed with an analysis of covariance (ANCOVA) with fixed factors for ventricular morphology (single left versus single right or mixed) and treatment group, with a continuous covariate of baseline peak VO2. For those without data at the 26-week visit, this value was imputed as equal to the baseline value (no change). The alpha level was set at 0.05 with two-sided testing. All statistical analyses were performed using SAS statistical software 9.4 (SAS Institute, Inc., Cary, North Carolina). Secondary analyses included participants who successfully completed the protocol with measurable values at each of the secondary endpoints. Secondary outcomes of continuous data points were analyzed in the manner described for the primary outcome. In order to assess the generalizability of findings at the ventilatory anaerobic threshold, demographic and clinical characteristics were compared between participants without paired VO2 at VAT data and those comprising the remainder of the cohort using the Student's t-test and Fisher's exact test. Fisher's exact test was used to compare adverse events between the udenafil and placebo cohorts.

[6] = 87.5 mg twice daily, baseline to week 26
[7] = baseline before drug, mean ± SD (n)

## CCCOc1ccc(S(=O)(=O)NCCC2CCCN2C)cc1-c1nc2c(CCC)nn(C)c2c(=O)[nH]1 (centres unmarked) [Udenafil, udenafil]
[1]; 87.5 mg twice daily, baseline to week 26, mean ± SD (n), p 0.002 vs placebo
  Resting oxygen saturation, change: 0.5%
[1]; 87.5 mg twice daily, baseline to week 26, mean ± SD (n), p 0.003 vs placebo
  Resting diastolic blood pressure, change: −2.9 mmHg
[1]; baseline to 26-week testing
  Resting diastolic blood pressure, change vs placebo (in words): small but statistically significant decrease
  Resting heart rate, respiratory rate, or systolic blood pressure, change vs placebo (in words): no difference
  Resting oxygen saturation, change vs placebo (in words): small but statistically significant increase
[2]; [6]
  Peak VO2 (VO2 max), increase in percent: 2.8%
  VE/VCO2 at VAT, decrease in percent: 2.1%
  Work rate at VAT, improvement in percent: 5.5% and 5.2%
[2]; 87.5 mg twice daily, baseline to week 26, paired data
  VO2 at VAT, improvement in percent: 3.2%
[2]; 87.5 mg twice daily, baseline to week 26, paired data, mean ± SD (n), p 0.023 vs placebo (p=0.012)
  Anaerobic threshold oxygen consumption (VO2 at VAT), change: 30 mL/min and 33 ± 185 mL/min and 29.7 mL/min
[2]; [7]
  Peak exercise heart rate, baseline: 165 ± 20 (200) bpm
  Peak exercise minute ventilation, baseline: 71 ± 21 (199) L/min
  Peak exercise respiratory rate, baseline: 51 ± 11 (199) breaths/min
  Peak exercise work rate, baseline: 120 ± 32 (198) W
[3]; 87.5 mg twice daily compared with other tested regimens
  Average serum concentration: highest average serum concentration
[3]; 87.5 mg twice daily
  Dose-limiting adverse events: not associated with dose-limiting adverse events
[3]; all tested dosing regimens
  Tolerability: tolerability at all tested dosing regimens
[4]; 87.5 mg twice daily
  MPI, max of the difference Week 26 − Baseline: 0.2
  MPI, median (interquartile range) of the difference Week 26 − Baseline: −0.01 (−0.11, 0.05)
  MPI, min of the difference Week 26 − Baseline: −.3
  MPI difference, Week 26 − Baseline, mean (SD): 122: −0.02 (0.113)
[4]; 87.5 mg twice daily, listed as udenafil
  MPI difference, Week 26 − Baseline, mean (SD): −0.02
[4]; udenafil minus placebo, baseline, p 0.818
  MPI, LS mean dif A − B (SE), baseline: −0.0 (0.018)
[4]; udenafil minus placebo, week 26, p 0.024
  MPI, LS mean dif A − B (SE), Week 26: −0.04 (0.018)
[4]; udenafil minus placebo, p 0.028
  MPI, LS mean dif A − B (SE), difference Week 26 − Baseline: −0.03 (0.014)
[5]; human, in vivo, 26 weeks
  Participants who experienced a serious adverse event: 14
  Serious adverse events with possible, probable, or definite relationship to study drug: 3 events
[5]; in vivo
  Adverse events more common than in the placebo group: Headache, facial flushing, abdominal pain, epistaxis, and erection (male participants) were more common
  Priapism: no reported episodes of priapism
  Serious adverse events related to study drug, kind: unilateral retinal artery and vein thrombosis, transient lower extremity diplegia, and transient dyspnea
[5]; male, human, in vivo, 26 weeks
  Non-serious adverse event: increased erection, participants: 13 (11.7) n (%)
[5]; study cohort, 26 weeks
  Deaths: no deaths
